Source: patent US20130029942A1, “COMPOUNDS AND THERAPEUTICAL USES THEREOF” (Myrexis, Inc., priority 2003, published 2013)
Like-named read-outs stand apart in the source and are kept apart here.

Tested on: T-47D cells
Assay: Caspase cascade activation / induction of apoptosis in T-47D cells (fluorogenic N-(Ac-DEVD)-N'-ethoxycarbonyl-R110 substrate)
Type: cell-based, human
Conditions: for EC50: Homo sapiens, T47D
[1] = T-47D, 48 hr, benzohydrazide table, read-out: T-47D (48 hr) EC50
[2] = T-47D, 48 hr, benzohydrazide table
[3] = T-47D, 24 hr, read-out: T-47D (24 hr) EC50
[4] = T-47D, 48 hr, read-out: T-47D (48 hr) EC50

CSc1nc(N(C)NC(=O)c2ccc(Cl)cc2)c2ccccc2n1 was tested, and the EC50 [1] was 138 nM and the “T-47D (48 hr) Ratio” value [2] was 14.4.

In the case of COc1ccc(N(C)c2nc(Cl)nc3cccc(Cl)c23)cc1 [Example 90, (2,5-Dichloro-quinazolin-4-yl)-(4-methoxy-phenyl)-methyl-amine], the EC50 [3] is reported as 2 nM.

COc1ccc(N(C)c2nc(N3CCOCC3)nc3ccccc23)cc1 [Example 15, (4-Methoxy-phenyl)-methyl-(2-morpholin-4-yl-quinazolin-4-yl)-amine] showed an EC50 [3] of 56 nM and an EC50 [4] of 89 nM.

With CSc1nc(N(C)NC(=O)c2cccs2)c2ccccc2n1 the EC50 [1] was 737 nM and the “T-47D (48 hr) Ratio” value [2] was 10.1.

Work on CN(c1ccc(OC(F)(F)F)cc1)c1nc(Cl)nc2ccccc12 [Example 5, (2-Chloro-quinazolin-4-yl)-(4-trifluoromethoxy-phenyl)-methyl-amine] yielded an EC50 [3] of 24 nM.

Work on COc1ccc(N(C)c2nc(C)nc3ccc(N=[N+]=[N-])cc23)cc1 [Example 111, (6-Azido-2-methyl-quinazolin-4-yl)-(4-methoxy-phenyl)-methyl-amine] yielded an EC50 [3] of 32 nM.

For CN(c1nc(Cl)nc2ccccc12)[C@H]1CC[C@H](C)CC1 [Example 133, (2-Chloro-quinazolin-4-yl)-(trans-4-methylcyclohexyl)-methyl-amine], the EC50 [3] was > 10000 nM.

Work on COc1cnc(N(C)c2nc(C)nc3ccccc23)cn1 [Example 126, (5-Methoxy-pyrazin-2-yl)-(2-methyl-quinazolin-4-yl)-methyl-amine] yielded an EC50 [3] of 55 nM.

Cc1nc(Nc2ccc(OC(C)C)cc2)c2ccccc2n1 [Example 80, (4-Isopropoxy-phenyl)-(2-methyl-quinazolin-4-yl)-amine] showed an EC50 [3] of 5750 nM.

With COc1ccc(N(C)c2nc(C)nc3cc([N+](=O)[O-])ccc23)cc1 [Example 112, (4-Methoxy-phenyl)-methyl-(2-methyl-7-nitro-quinazolin-4-yl)-amine] the EC50 (24 h, read-out: T-47D (24 hr) EC50 (nM)) was > 10000 nM.

COc1ccc(N(C)c2nc(CF)nc3ccccc23)cc1 [Example 55, (2-Fluoromethyl-quinazolin-4-yl)-(4-methoxy-phenyl)-methyl-amine] was tested, and the EC50 [4] was 1 nM.

For COc1cc2nc(Cl)nc(N(C)c3ccc(C)cc3)c2cc1OC [Example 22, (2-Chloro-6,7-dimethoxyquinazolin-4-yl)-(4-methyl-phenyl)-methyl-amine], the EC50 [3] was > 10000 nM and the EC50 [4] was > 10000 nM.

In the case of CSc1nc(N(C)NC(=O)c2ccc(F)cc2)c2ccccc2n1, the EC50 [1] is reported as 290 nM and the “T-47D (48 hr) Ratio” value [2] is reported as 13.8.

For Clc1nc(Nc2ccncc2)c2ccccc2n1 [Example 27, (2-Chloro-quinazolin-4-yl)-pyridin-4-yl-amine], the EC50 [4] was > 10000 nM.

CCCOc1ccc(N(C)c2nc(Cl)nc3ccccc23)cc1 [Example 70, (2-Chloro-quinazolin-4-yl)-(4-propoxy-phenyl)-methyl-amine] was tested, and the EC50 [4] was 42 nM.

In the case of COc1ccc(Nc2nc(Cl)nc3cc(OC)c(OC)cc23)cc1 [Example 21, (2-Chloro-6,7-dimethoxyquinazolin-4-yl)-(4-methoxy-phenyl)-amine], the EC50 [3] is reported as > 10000 nM and the EC50 [4] is reported as > 10000 nM.

Cc1nc(N(C)c2ccc(OC(C)C)cc2)c2ccccc2n1 [Example 86, (4-Isopropoxy-phenyl)-(2-methyl-quinazolin-4-yl)-methyl-amine] showed an EC50 [3] of 41 nM.

Compound COc1ccc(N(c2nc(Cl)nc3ccccc23)C(C)C)cc1 [Example 37, (2-Chloro-quinazolin-4-yl)-isopropyl-(4-methoxy-phenyl)-amine] has an EC50 [3] of 2690 nM.

For COc1ccc(N(c2nc(C)nc3ccccc23)C(F)F)cc1 [Example 139, Difluoromethyl-(4-methoxy-phenyl)-(2-methyl-quinazolin-4-yl)-amine], the EC50 [3] was 4660 nM.

CN(c1ccc(Oc2ccccc2)cc1)c1nc(Cl)nc2ccccc12 [Example 69, (2-Chloro-quinazolin-4-yl)-(4-phenoxy-phenyl)-methyl-amine] was tested, and the EC50 [4] was > 1000 nM.

For Cc1nc(N(C)c2ccncc2)c2ccccc2n1 [Example 136, (2-Methyl-quinazolin-4-yl)-(pyridin-4-yl)-methyl-amine], the EC50 [3] was > 10000 nM.

With CSc1nc(N(C)NC(=O)c2cccc(C)c2)c2ccccc2n1 the EC50 [1] was 46 nM and the “T-47D (48 hr) Ratio” value [2] was 12.7.

With COc1ccc(N(C)c2nc(C)nc3ccccc23)nc1 [Example 138, (5-Methoxy-pyridin-2-yl)-(2-methyl-quinazolin-4-yl)-methyl-amine] the EC50 [3] was 15 nM.

With CCOc1ccc(Nc2nc(Cl)nc3ccccc23)cc1 [Example 94, (2-Chloro-quinazolin-4-yl)-(4-ethoxy-phenyl)-amine] the EC50 [4] was > 10000 nM.

Work on COc1cccc(N(C)c2nc(Cl)nc3ccccc23)c1OC [Example 39, (2-Chloro-quinazolin-4-yl)-(2,3-dimethoxy-phenyl)-methyl-amine] yielded an EC50 [3] of 693 nM.

COc1ccc(N(C)c2nc(N(C)c3ccc(OC)cc3)c3cc(Cl)ccc3n2)cc1 [Example 61, 6-Chloro-N^2,N^4-bis-(4-methoxy-phenyl)-N^2,N^4-dimethyl-quinazoline-2,4-diamine] gave an EC50 [4] of 4050 nM.

With Cc1nc(Nc2ccc(OC(F)F)cc2)c2ccccc2n1 [Example 78, (4-Difluoromethoxy-phenyl)-(2-methyl-quinazolin-4-yl)-amine] the EC50 [3] was > 10000 nM.

Cc1nc(N(C)c2ccc(O)cc2)c2ccccc2n1 [Example 93, (4-Hydroxy-phenyl)-(2-methyl-quinazolin-4-yl)-methyl-amine] gave an EC50 [3] of 65 nM.

Work on COc1ccc(N(C)c2nc(C)nc3nccnc23)cc1 [Example 140, (4-Methoxy-phenyl)-(2-methyl-pteridin-4-yl)-methyl-amine] yielded an EC50 [3] of 27 nM.

With COc1ccc(N(C)c2nc(N)nc3ccccc23)cn1 [Example 49, N^4-(6-methoxypyridin-3-yl)-N^4-methyl-quinazoline-2,4-diamine] the EC50 [3] was 29 nM and the EC50 [4] was 22 nM.

In the case of COc1ccc(Nc2nc(C)nc3ccccc23)cn1 [Example 95, (2-Methyl-quinazolin-4-yl)-(6-methoxy-pyridin-3-yl)-amine], the EC50 [3] is reported as > 10000 nM.

Compound CCOc1ccc(N(C)c2nc(Cl)nc3ccccc23)cc1 [Example 97, (2-Chloro-quinazolin-4-yl)-(4-ethoxy-phenyl)-methylamine] has an EC50 [4] of 5 nM.

With COc1ccc(Nc2nc(C)nc3ccccc23)c(F)c1 [Example 96, (2-Fluoro-4-methoxy-phenyl)-(2-methyl-quinazolin-4-yl)-amine] the EC50 [3] was > 10000 nM.

Compound COc1ccc(N(C)c2nc(NCCCN(C)C)nc3ccccc23)cc1 [Example 47, N^2-(3-Dimethylamino-propyl)-N^4-(4-methoxy-phenyl)-N^4-methyl-quinazoline-2,4-diamine] has an EC50 [4] of 187 nM.

With CN(c1ccccc1)c1nc(N(C)c2ccccc2)c2ccccc2n1 [Example 18, N^2,N^4-Dimethyl-N^2,N^4-diphenyl-quinazoline-2,4-diamine] the EC50 [3] was > 10000 nM and the EC50 [4] was > 10000 nM.

In the case of COc1cnc(Nc2nc(C)nc3ccccc23)nc1 [Example 141, (5-Methoxy-pyrimidin-2-yl)-(2-methyl-quinazolin-4-yl)-amine], the EC50 [3] is reported as > 10000 nM.

Work on COc1ccc(N(C)c2nc(-c3ccccc3)nc3ccccc23)cc1 [Example 83, (4-Methoxy-phenyl)-(2-phenyl-quinazolin-4-yl)-methyl-amine] yielded an EC50 [4] of 168 nM.

Compound CNc1nc(N(C)c2ccc(OC)nc2)c2ccccc2n1 [Example 129, (2-Methylamino-quinazolin-4-yl)-(6-methoxy-pyridin-3-yl)-methyl-amine] has an EC50 [3] of 27 nM.

Compound COc1ccc(CN(C)c2nc(Cl)nc3ccccc23)cc1 [Example 26, (2-Chloro-quinazolin-4-yl)-(4-methoxy-benzyl)-methyl-amine] has an EC50 [4] of 178 nM.

Cc1nc(N(C)c2ccc(N(C)C)cc2)c2ccccc2n1 [Example 105, (4-Dimethylamino-phenyl)-(2-methyl-quinazolin-4-yl)-methyl-amine] showed an EC50 [3] of 2 nM.

COc1ccc(N(C)c2nc(N(C)C)nc3ccccc23)cn1 [Example 128, (2-Dimethylamino-quinazolin-4-yl)-(6-methoxy-pyridin-3-yl)-methyl-amine] was tested, and the EC50 [3] was 58 nM.

Work on CN(c1ccc(Cl)cc1)c1nc(Cl)nc2ccccc12 [Example 3, (2-Chloro-quinazolin-4-yl)-(4-chloro-phenyl)-methyl-amine] yielded an EC50 [3] of 79 nM.

Work on COc1ccc(N(C)c2nc(NCCO)nc3ccccc23)cn1 [Example 48, N^2-(2-Hydroxyethyl)-N^4-(6-methoxypyridin-3-yl)-N^4-methyl-quinazoline-2,4-diamine] yielded an EC50 [4] of 137 nM.

In the case of COc1ccc(N(C)c2nc(NCCN3CCOCC3)nc3ccccc23)cc1 [Example 14, N^4-(4-Methoxy-phenyl)-N^4-methyl-N^2-(2-morpholin-4-yl-ethyl)-quinazoline-2,4-diamine], the EC50 [3] is reported as 1340 nM and the EC50 [4] is reported as 1330 nM.

Cc1nc(N(C)c2ccc(N)cc2Br)c2ccccc2n1 [Example 104, (4-Amino-2-bromo-phenyl)-(2-methyl-quinazolin-4-yl)-methyl-amine] showed an EC50 [3] of 134 nM.

COc1ccc(N(C)c2nc(Cl)nc3ccc(C)cc23)cc1 [Example 56, (2-Chloro-6-methyl-quinazolin-4-yl)-(4-methoxy-phenyl)-methyl-amine] gave an EC50 [4] of 5 nM.

In the case of COc1ccc(N(C)c2nc(C(=O)O)nc3ccccc23)cc1 [Example 118, 4-(N-(4-Methoxy-phenyl)-N-methylamino)quinazoline-2-carboxylic acid], the EC50 [3] is reported as > 10000 nM.

For COc1ccc(N(C)c2nc(N)nc3ccccc23)cc1 [Example 12, N^4-(4-Methoxy-phenyl)-methyl-quinazoline-2,4-diamine], the EC50 [3] was 8 nM, the EC50 [4] was 9 nM and the EC50 (Table III, time not given, repeats 24 hr or 48 hr T-47D values of Table I, read-out: Caspase activation (EC50 nM)) was 8 nM.

Compound Cc1nc(N(C)c2c(Br)cc(N)cc2Br)c2ccccc2n1 [Example 103, (4-Amino-2,6-dibromo-phenyl)-(2-methyl-quinazolin-4-yl)-methyl-amine] has an EC50 [3] of 552 nM.

For COc1ccc2c(ccn2-c2nc(Cl)nc3ccccc23)c1 [Example 9, 2-Chloro-4-(5-methoxyindol-1-yl)quinazoline], the EC50 [4] was > 10000 nM.
